Reference: publication PMC6445166, “Subnanomolar indazole-5-carboxamide inhibitors of monoamine oxidase B (MAO-B) continued: indications of iron binding, experimental evidence for optimised solubility and brain penetration” (Journal of Enzyme Inhibition and Medicinal Chemistry, 2017)
“And” between values parts separate entries of the source, which are not always exact repeats. Identical values can stand only once. Like-named read-outs stand apart in the source and are kept apart here.

Tests used:
hMAO-B [1] = target: T1, hMAO-B (Homo sapiens, UniProt P27338); settings: at IC80: NTZ compounds 1.0 nM, selegiline 30 nM, safinamide 50 nM; p-tyramine raised to 1.0 mM after 22 min
T1 sequence (P27338 1-520): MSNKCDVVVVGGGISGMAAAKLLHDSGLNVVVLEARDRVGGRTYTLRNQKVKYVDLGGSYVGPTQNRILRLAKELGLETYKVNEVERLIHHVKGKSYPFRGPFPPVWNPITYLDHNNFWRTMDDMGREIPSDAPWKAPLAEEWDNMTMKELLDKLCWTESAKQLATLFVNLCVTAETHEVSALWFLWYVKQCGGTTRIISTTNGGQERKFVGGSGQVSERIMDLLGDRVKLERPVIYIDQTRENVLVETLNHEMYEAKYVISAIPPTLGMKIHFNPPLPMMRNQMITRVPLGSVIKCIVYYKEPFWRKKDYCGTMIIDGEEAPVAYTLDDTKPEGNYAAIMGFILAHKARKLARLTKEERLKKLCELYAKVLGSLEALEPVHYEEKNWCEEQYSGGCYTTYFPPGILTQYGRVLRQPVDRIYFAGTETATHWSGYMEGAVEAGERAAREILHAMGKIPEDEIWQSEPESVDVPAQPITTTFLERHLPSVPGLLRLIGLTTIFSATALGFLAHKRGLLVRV

[2] = Chemical stability in phosphate buffer; format: physicochemical; settings: chemical stability in 10 mM phosphate buffer at pH 7.4; 60 days at room temperature
Description: The purity and solubility of the compounds was determined by an analytical HPLC-UV method using an LC-MS instrument (Applied Biosystems API 2000 LC/ESI-MS; HPLC Agilent 1100 binary pump system) coupled with a diode array detector (DAD) with an UV absorption in the range from 220 to 400 nm. Mass spectra were recorded on an API 2000 mass spectrometer equipped with an electrospray ion source (ESI) by using triple ion quadrupole (TIC) with an alternating full scan detection in positive (+Q) and/or negative (-Q) mode. As mobile phases for the different analytical LC methods were used methanol (Sigma-Aldrich, Chromasolv LC-MS grade), ammonium acetate (2.0 mM) and water Purelab flex.
500 µL of a 10 mM compound stock solution in DMSO, ACN or MeOH was added to a 2.0 mL HPLC glass vial containing 500 µL phosphate buffer (10 mM, pH 7.4) and sonicated for 60 sec. The sample was shaken at 37 °C for 2 hours and then left for 60 days at room temperature under light exposure. The chemical stability of compounds was checked by UV-visible spectroscopy (Figure S1).

human recombinant MAO-A = target: T2, human recombinant MAO-A (Homo sapiens, UniProt P21397); format: biochemical
T2 construct: purchased Sigma-Aldrich M7316; host or cells: baculovirus-infected BTI-TN-5B1-4 insect cells (microsomes)
T2 sequence (P21397 1-527): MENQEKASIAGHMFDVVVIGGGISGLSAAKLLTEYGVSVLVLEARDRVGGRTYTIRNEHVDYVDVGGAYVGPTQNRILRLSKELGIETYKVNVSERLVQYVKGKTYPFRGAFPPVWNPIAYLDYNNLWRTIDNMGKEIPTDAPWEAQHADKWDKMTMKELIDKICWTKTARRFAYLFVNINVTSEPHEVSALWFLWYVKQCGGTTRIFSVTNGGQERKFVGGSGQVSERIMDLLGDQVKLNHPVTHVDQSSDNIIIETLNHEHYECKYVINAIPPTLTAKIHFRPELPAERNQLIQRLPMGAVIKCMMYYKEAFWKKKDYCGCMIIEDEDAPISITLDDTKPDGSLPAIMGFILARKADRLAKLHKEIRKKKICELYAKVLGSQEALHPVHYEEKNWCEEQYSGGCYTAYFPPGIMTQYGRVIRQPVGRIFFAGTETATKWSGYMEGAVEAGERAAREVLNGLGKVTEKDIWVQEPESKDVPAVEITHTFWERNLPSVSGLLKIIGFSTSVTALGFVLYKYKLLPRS

[3] = Solubility studies (HPLC-UV/ESI-MS; kinetic solubility); format: physicochemical; settings: measured, solubility in mol/L at pH 7.4 in 60 mM phosphate buffer or pure water at rt; for solubility: 60 mM phosphate buffer or pure water, pH 7.4, aqueous buffer, read-out: logS7.4
[4] = Octanol-water distribution coefficient (logD); settings: for logD7.4: measured, pH 7.4 in 60 mM phosphate buffer at rt
[5] = PAMPA-BBB permeability assay; settings: for PAMPA-BBB −logPe: 4 h under stirring, Prisma HT buffer; for CNS+/– Prediction: from PAMPA-BBB permeability, limit for BBB permeation Pe > 4.0 × 10^−6 cm/s
hMAO-B [6] = target: T1, hMAO-B; assay: MAO-B kinetic experiments (Lineweaver-Burk); format: biochemical; set-up: purchased Sigma-Aldrich M7441; host or cells: baculovirus-infected BTI-TN-5B1-4 insect cells (microsomes); settings: 0.5 and 1.0 nM inhibitor, varied p-tyramine
[7] = Solubility studies (HPLC-UV/ESI-MS; kinetic solubility); format: physicochemical; settings: thermodynamic from solid
Description: Solid […]
samples of compounds (2–4 mg) were weighed and serial diluted in 1.0 mL either of water (Purelab flex) or water-methanol (1:1). A precisely weighed sample of the respective compound in methanol (1.0 ± 0.05 mg/mL) was used as a reference. A blank solution without detectable analyte was used for instrument calibration for each experiment. The suspensions were mixed on a vortex for 5 min, sonicated for 1 h, and then shaken over night at rt. After that, the samples were left for 1 h at rt and then filtered through a 0.45 µm filter. Aliquots (10 µL) of each sample were injected into the HPLC/ESI-MS system (Applied
(1 picture or pasted object on this page, not shown here)
Biosystems API 2000 ESI-MS, HPLC Agilent 1100 binary pump system) equipped with a Phenomenex Luna C18 reverse phase column and subsequently measured by chromatographic procedure (DAD detection) with mass conformation (MS scan in positive and negative mode). The mass scan method was adapted for each tested compound depending on its limit of detection (LOD) and physicochemical properties (Table S1, Figure S2). The solubility of the compounds was calculated by Analyst software v.
1.5.1 (AB Sciex Pte. Ltd.) using one point calibration after subtraction the absorbance of the blank solution from the total analyte peak area measured for each sample in the experiments. To verify the results, an equimolar mixture (each in a concentration equal to 1.0 mg/mL) of the compounds in methanol was prepared and measured under the same conditions as described above (see Figure 4A). All experiments were performed in triplicate with at least three analytical runs for each sample.
The solubility data for tested compounds, obtained from the different analytical techniques, are […]
Table S1. Solubility data for selected compounds.
Compd. Methoda Solubility in 50% methanolb Solubility in waterb […]
a Method of detection: HPLC-UV method 1 (DAD), HPLC/ESI-MS method 2 (+Q/–Q scan: +MI+H+/– MI–H–). b The values are the mean ± SD (n ≥ 3).

[8] = PAMPA-BBB standard drugs; cited from earlier work
[9] = PAMPA
[10] = pure water (Purelab flex), water, method 1: HPLC-UV (DAD), read-out: Solubility in water Sw
[11] = pure water (Purelab flex), water, method 1: HPLC-UV (DAD), read-out: Solubility in water logSw
[12] = pure water (Purelab flex), water, method 2: HPLC/ESI-MS, read-out: Solubility in water logSw
[13] = pure water (Purelab flex), water, pure water, mean ± SD (n ≥ 3), read-out: Solubility in water
[14] = water-methanol (1:1), aqueous with cosolvent or surfactant or cyclodextrin, mean ± SD (n ≥ 3), read-out: Solubility in 50% methanol
[15] = water-methanol (1:1), aqueous with cosolvent or surfactant or cyclodextrin, method 1: HPLC-UV (DAD), read-out: Solubility in 50% methanol S
[16] = water-methanol (1:1), aqueous with cosolvent or surfactant or cyclodextrin, method 1: HPLC-UV (DAD), read-out: Solubility in 50% methanol logS
[17] = water-methanol (1:1), aqueous with cosolvent or surfactant or cyclodextrin, method 2: HPLC/ESI-MS, read-out: Solubility in 50% methanol logS
[18] = pure water (Purelab flex), water, method 2: HPLC/ESI-MS, read-out: Solubility in water Sw
[19] = water-methanol (1:1), aqueous with cosolvent or surfactant or cyclodextrin, method 2: HPLC/ESI-MS, read-out: Solubility in 50% methanol S
[20] = PAMPA-BBB validation with standard drugs

SMILES | mode of interaction with hMAO-B (reversible or irreversible) (hMAO-B [1]) | PAMPA-BBB −logPe [5] | Papp at 4 h, 10 µM ([5]; PAMPA, pH 7.4) [×10⁻⁶ cm/s] | solubility [7, 10] | solubility [7, 11] [µM] | solubility [7, 12] [µM] | solubility [7, 13] | solubility [7, 14] | solubility [7, 15] | solubility [7, 16] [µM] | solubility [7, 17] [µM] | Stability [2] | logS7.4 [3] | Reported –logPe [8] | further results
O=C(Nc1ccc(Cl)c(Cl)c1)c1ccc2[nH]ncc2c1 [NTZ-1006] | reversible inhibitors of hMAO-B |  |  |  |  |  |  |  |  |  |  | Stable |  |  | IC50 (human recombinant MAO-A): > 10 µM
O=C(Nc1ccc(F)c(Cl)c1)c1ccc2[nH]ncc2c1 [NTZ-1032] |  |  |  |  |  |  |  |  |  |  |  | Stable |  |  | 
O=C(Nc1ccc(F)c(F)c1)c1ccc2[nH]ncc2c1 [NTZ-1034] |  |  |  |  |  |  |  |  |  |  |  | Stable | −4.22 |  | logD7.4 [4]: 2.04
Cn1ncc2cc(C(=O)Nc3ccc(F)c(Cl)c3)ccc21 [NTZ-1441] |  | 3.84 | 144 ± 3.4 | 10.6 µg/mL and 34.9 µM | 34.7 | 135 | 42.1 µg/mL and 136 µM | 609 µg/mL and 2040 µM | 663 µg/mL and 2190 µM | 2190 | 2040 | Stable | −3.87 |  | solubility [3]: > 100 µM; logD7.4 [4]: 2.19; logD ([4]; octanol/water, pH 7.4): < 3; solubility [7, 18]: 136 ± 5.16 µM; solubility [7, 19]: 609 ± 48.7 µg/mL
CC(=O)[C@H]1CC[C@H]2[C@@H]3CCC4=CC(=O)CC[C@]4(C)[C@H]3CC[C@]12C [Progesterone, reference compound] |  |  |  |  |  |  |  |  |  |  |  |  |  | 3.7 ± 0.25 | Papp at 4 h ([5]; PAMPA, pH 7.4): 55.2 ± 0.02 ×10⁻⁶ cm/s; Experiment –logPe [5, 20]: 4.26 ± 0.00; CNS+/– Prediction [5]: CNS+
CC(C)NCC(O)COc1cccc2ccccc12.Cl (stereo not shown) [Propranolol HCl, reference compound] |  |  |  |  |  |  |  |  |  |  |  |  |  | 4.1 ± 0.25 | Experiment Pe [5, 20]: 98.7 ± 9.96 10-6 cm/s; Experiment –logPe [5, 20]: 4.01 ± 0.04; CNS+/– Prediction [9]: CNS+
C[C@H](NCc1ccc(OCc2cccc(F)c2)cc1)C(N)=O [Safinamide, reference compound] | reversible |  |  |  |  |  |  |  |  |  |  |  |  |  | 
Cn1c(=O)c2[nH]cnc2n(C)c1=O [Theophylline] |  |  |  |  |  |  |  |  |  |  |  |  |  | > 6.0 ± 0.25 | 

More lines, main results first:

mode of interaction with hMAO-B (reversible or irreversible) (hMAO-B [1]) | PAMPA-BBB −logPe [5] | Papp at 4 h, 10 µM ([5]; PAMPA, pH 7.4) [×10⁻⁶ cm/s] | solubility [7, 10] | solubility [7, 11] [µM] | solubility [7, 12] [µM] | solubility [7, 13] | solubility [7, 14] | solubility [7, 15] | solubility [7, 16] [µM] | solubility [7, 17] [µM] | SMILES | Stability [2] | logS7.4 [3] | Reported –logPe [8] | further results
reversible inhibitors of hMAO-B | 3.91 | 118 ± 6.4 | 0.75 µg/mL and 2.36 µM | 2.34 | 17.8 | 5.62 µg/mL and 17.6 µM | 156 µg/mL and 490 µM | 105 µg/mL and 300 µM | 331 | 447 | Cn1ncc2cc(C(=O)Nc3ccc(Cl)c(Cl)c3)ccc21 [NTZ-1091] | Stable | −4.75 |  | type of hMAO-B inhibition (Lineweaver–Burk) (hMAO-B [6]): linear and intersected at the Y-axis
 | 3.83 | 148 ± 2.4 | 10.4 µg/mL and 36.3 µM | 38.9 | 214 | 61.6 µg/mL and 215 µM | 610 µg/mL and 2120 µM | 631 µg/mL and 2180 µM | 2190 | 2140 | Cn1ncc2cc(C(=O)Nc3ccc(F)c(F)c3)ccc21 [NTZ-1471] | Stable | −3.67 |  | CNS+/– Prediction [5]: CNS+; solubility [3]: > 100 µM; solubility [7, 18]: 214 ± 33.3 µM; solubility [7, 19]: 610 ± 26.2 µg/mL
